Reference: ChEMBL document CHEMBL3507680, “University of Dundee, Gates Library screen for HepG2 cell viability”

experiment: Human HepG2 cell viability assay in 384 well format; type: toxicity, cell-based; parameters: dose 125 nL, time 70.5 hour; cytotoxicity at 70.5 h: concentration not given beside the values; conditions: HepG2 cells, read-out: Inhibition

SMILES | cytotoxicity at 70.5 h
N#Cc1cccc(N2CCCC3(CN(C(=O)NC4CC4)CCO3)C2)c1 (stereo not drawn) | -1.09%
CCS(=O)(=O)N1Cc2c(Cn3cccc3)nn(C(C)C)c2C1 | -2.77%
Cc1ccc(N2CC3(CCN(S(=O)(=O)C4CC4)C3)C2)nn1 | -5.86%
CCS(=O)(=O)N1CCC2(CC1)CC[C@@]1(C(=O)N(C)C)CN(C(C)=O)C[C@@H]21 | 13.5%
COCCN1C(=O)C2(CCC(C(=O)Nc3ccc(C)cc3)CC2)N=C1C (stereo not drawn) | 10.5%
O=C(NCC1CC[C@@]2(CNCCOC2)O1)c1cnccn1 (stereo partly drawn) | 27.6%
CNC(=O)[C@H]1C[C@@H]2CN(c3cc(OC)ncn3)C[C@@H]2N1C(C)C | 15.2%
COCC(=O)N1CC[C@H]2[C@H]1CCN2CC(C)C | -12.6%
CNC(=O)[C@@H]1COC[C@H]2CN(C(=O)c3ccc(C)c(C)c3)C[C@H]21 | -7.79%
Cc1cc(C)cc(CN2C[C@@H]3OCCN(S(=O)(=O)N(C)C)[C@@H]3C2)c1 | -5.73%
CCc1ccc(C(=O)N2C[C@@H]3COC[C@@H](C(=O)NC)[C@@H]3C2)cc1 | -0.591%
CCOCc1cncc2c1CCN(C(=O)c1cccc(C#N)c1)C2 | -1.85%
COc1cccc(CN2C[C@H]3CCNCC[C@H]3S2(=O)=O)c1 | 18.8%
CC(C)NC(=O)N1CCN(C(=O)C2CCOCC2)CC2(CNC(=O)C2)C1 (stereo not drawn) | -16%
c1ccc(CO[C@H]2CO[C@@]3(CCCN(Cc4ccncc4)C3)C2)nc1 | -16.2%
O=c1cc(Cn2ccnc2)nc2n1CCCN(Cc1cccs1)C2 | -16.6%
O=C(c1ccc[nH]1)N1CCOCC2(CCN(C3CCOCC3)C2)C1 (stereo not drawn) | -19%
N#Cc1cccc(N2CCCC3(C2)CN(c2nncs2)CCO3)c1 (stereo not drawn) | 14%
CS(=O)(=O)NC[C@]12COC[C@H]1CN(C(=O)c1ncccn1)C2 | 17.4%
Cc1ccc(S(=O)(=O)N2Cc3c(CN(C)C)nn(C)c3C2)cc1 | 3.97%
CN(C)Cc1nn(C)c2c1CN(S(=O)(=O)c1ccccc1F)C2 | -0.163%
O=C1CCCN1CC1CN(C(=O)C2CCOCC2)Cc2nccn2C1 (stereo not drawn) | -1.66%
Cn1cc(C[C@H]2[C@H](O)CCN2C(=O)C2CCCC2)cn1 | -2.64%
CN(Cc1cn2c(n1)CN(C(=O)C1CCOCC1)CC2)Cc1ccco1 | -1.65%
CS(=O)(=O)N1Cc2nccn2CC(CN2CCCC2=O)C1 (stereo not drawn) | 1.5%
Cc1ccoc1C(=O)N1CC(C(=O)NCC2CC2)C2(CCOCC2)C1 (stereo not drawn) | 1.52%

SMILES | cytotoxicity at 70.5 h
Cc1cccc(S(=O)(=O)N2Cc3c(CN(C)C)nn(C)c3C2)c1 | 2.96%
Cc1ccsc1C(=O)N1CCn2cnc(COCC3CC3)c2C1 | -4.7%
Cc1ncsc1CN1CC[C@H]2OCC[C@@]2(C(=O)N(C)C)C1 | -3.45%
Cn1cc(C[C@H]2[C@H](O)CCN2C(=O)C2CCOCC2)cn1 | -7.24%
Cc1ncsc1CN1CC[C@H]2OCC[C@@]2(C(=O)NCC2CC2)C1 | -3.48%
O=C1COC2(CCN(Cc3ccncc3)CC2)CN1CC1CC1 | 4.04%
CCn1cc2c(n1)C(COC)CN(C(=O)COc1ccccc1)C2 (stereo not drawn) | 6.15%
COc1ccccc1OCC(=O)N1CCC[C@]2(C[C@@H](OC)CO2)C1 | 10.6%
Cc1csc([C@@H]2C[C@@H]3CCN(C(=O)c4cnccn4)C[C@H]3O2)n1 | -4.76%
Cn1ccnc1CN1CCC2(CC1)CC(Nc1ccccn1)CO2 (stereo not drawn) | -2.46%
CCC1=N[C@@]2(CC[C@@H]3CN(S(=O)(=O)CC(C)C)C[C@@H]32)C(=O)N1CC | 1.37%
Cc1ccsc1C(=O)N1CC(C(=O)NC(C)C)C2(CCOCC2)C1 (stereo not drawn) | 1.65%
O=C1CCC2(CCCN(c3ncc(F)cn3)CC2)N1Cc1ccccc1 (stereo not drawn) | 1.63%
O=C(c1c[nH]cn1)N1CCCn2c(nnc2Cn2cccc2)C1 | -1.3%
Cc1ccccc1OCC(=O)N1CC[C@]2(C[C@@H](OCC3CC3)CO2)C1 | -1.4%
CN(C)S(=O)(=O)N1C[C@@H](OCc2ccccn2)[C@H]2OCCC[C@H]21 | -3.83%
Cn1ncc2c1C(COCC1CC1)CN(Cc1cccnc1)C2 (stereo not drawn) | -4.66%
COc1ccc(CN2Cc3cnn(C)c3C(COCC3CC3)C2)cc1 (stereo not drawn) | -1.5%
COCC1CN(C(=O)C2=CCCC2)Cc2cnn(CC3CC3)c21 (stereo not drawn) | -2.82%
Cc1cnc(C(=O)N2CC[C@H]3C[C@@H](c4nc(C)cs4)O[C@@H]3C2)cn1 | 7.61%
O=C(Cc1ccccc1)N1CCn2cc(Cn3cncn3)nc2C1 | 9.06%
CO[C@H]1CC[C@H]2[C@H]1OCCN2C(=O)C1=CCCC1 | 9.7%
Cn1nc(C#N)c2c1CN(C(=O)c1ccco1)CCC2 | 14.2%
COCC1CC2(CCN(C(=O)c3ccc(F)c(Cl)c3)CC2)CO1 (stereo not drawn) | 13%
O=C(c1cnccn1)N1CCC2(CCCN(Cc3ccoc3)C2)C1 (stereo not drawn) | 11.3%
O=S(=O)(C1CC1)N1CCC2(CC1)CC(Oc1ccccn1)CO2 (stereo not drawn) | 2.03%

SMILES | cytotoxicity at 70.5 h
COCC1CC2(CCN(C(=O)c3oc4ccccc4c3C)CC2)CO1 (stereo not drawn) | 3.46%
Cn1nc(C#N)c2c1CN(C(=O)c1ccsc1)CCC2 | 5.67%
Cc1nc(CN2CCO[C@H]3CN(C(=O)c4cccn4C)C[C@H]32)cs1 | 5.54%
Cc1nc(CN2CCO[C@H]3CN(C(=O)c4ccncc4)C[C@H]32)cs1 | 6.5%
O=C(NCC1CCC2(CCNCC2)CO1)c1cnccn1 (stereo not drawn) | 9.23%
NC(=O)c1nc2c(s1)CCN(Cc1ccccc1)CC2 | -2.47%
CCN(CC)C(=O)c1nc2c(s1)CCN(Cc1cccc(OC)c1)CC2 | -11.2%
COCC(=O)N1CCc2ccc(=O)n(Cc3csc(C)n3)c2CC1 | -6.47%
CCCN1CCCn2c(nc(CNC(=O)c3nccn3C)cc2=O)C1 | -9.48%
Cn1ccnc1C(=O)N1CCC2(CCCN2CC2CC2)CC1 | -7.19%
CCCN1CCCn2c(nc(CNC(=O)N3CCCC3)cc2=O)C1 | -9.21%
COc1cccc(CN2CCc3nc(C(=O)NCC(C)C)sc3CC2)c1 | 10.6%
CS(=O)(=O)N1C[C@H]2CCCN(Cc3nccs3)[C@H]2C1 | 14.5%
CNC(=O)CC1CC2(CCN(c3ncccn3)CC2)c2ccccc21 (stereo not drawn) | -6.77%
Cn1cc(CN2CCC3(CC2)C(=O)Nc2ccccc23)cn1 | -6.51%
COc1ccc(CN2C[C@H](N3CCCC3=O)[C@@H]3OCCC[C@@H]32)cc1 | -7%
Cn1cc(CN2C[C@@H]3CCCO[C@@H]3[C@H](N3CCCC3=O)C2)cn1 | -4.04%
Cc1cccc(CN2C[C@@H]3OCCN(S(=O)(=O)N(C)C)[C@@H]3C2)c1 | -2.05%
CC(C)N1CCc2c(c(COc3cncnc3)nn2CC2CC2)C1 | -3.91%
CNC(=O)CN1CCOCC2(C1)CN(C(=O)C(C)C)CCO2 (stereo not drawn) | -9.58%
O=C([C@@H]1CCO[C@@H]2CCN(Cc3cccs3)C[C@H]21)N1CCCCO1 | -18.4%
COCCN1CC[C@H]2OCC[C@@H](C(=O)N3CCCO3)[C@H]2C1 | 47%
COc1ccccc1CN1CC[C@H]2C[C@H](C(=O)N3CCCC3)O[C@H]2C1 | 15.4%
Cc1cccc(C(=O)N2CC(C(=O)NCC3CC3)C3(CCOCC3)C2)n1 (stereo not drawn) | -2.96%
COCCNC(=O)[C@@]12CCO[C@@H]1CCN(Cc1scnc1C)C2 | -2.1%
CCS(=O)(=O)N1C[C@@H]2CN(Cc3cnn(C)c3)CCO[C@@H]2C1 | 2.4%

SMILES | cytotoxicity at 70.5 h
CCCS(=O)(=O)N1C[C@@H]2CN(Cc3cnn(C)c3)CCO[C@@H]2C1 | -1.12%
COCC1CN(C(=O)COc2ccc(C)cc2)Cc2cn(C)nc21 (stereo not drawn) | -2.9%
Cc1occc1C(=O)N1C[C@@H]2[C@@H](C1)OCC(=O)N2Cc1cccnc1 | -2.83%
O=C(NCC1OCCc2cn(CC3CCOCC3)nc21)c1ccsc1 (stereo not drawn) | 5%
O=C(O)[C@]12CCCN(Cc3ccsc3)C[C@H]1CN(c1ncccn1)C2 | 1.99%
CCc1ccc(CN2CCC3(CCCN(C(=O)c4cnccn4)C3)C2)o1 (stereo not drawn) | 2.89%
c1cc2c(cc1CN1C[C@@H]3COC[C@@H](N4CCCC4)[C@@H]3C1)OCO2 | -6.89%
CN(C)C(=O)CN1CCOCC2(CCN(CC3CCOC3)CC2)C1 (stereo not drawn) | 15.1%
Cn1nc(Cn2ccnc2)c2c1CN(c1nccs1)C2 | -5.95%
Cn1cc(CN2C[C@H](N3CCOCC3)[C@@H]3OCCC[C@@H]32)cn1 | -4.71%
Cc1ccc(CN2CC[C@]3(C[C@H](OCc4ccccn4)CO3)C2)o1 | -18.4%
CCS(=O)(=O)NC[C@]12COC[C@H]1CN(Cc1cccnc1OC)C2 | -19.9%
O=C(Nc1cccnc1)[C@H]1CN(C2CCCC2)C[C@H]2OCC[C@@H]12 | -2.64%
CN1CC(=O)N(c2ccccc2)CC12CCN(Cc1nccn1C)C2 (stereo not drawn) | 4.89%
CN1CC(=O)N(c2cccc(F)c2)CC12CCN(Cc1cncn1C)C2 (stereo not drawn) | -4.15%
CN1CC(=O)N(c2cccc(F)c2)CC12CCN(Cc1nccs1)C2 (stereo not drawn) | -1.43%
Cn1ccnc1CN1CCC2(CC1)CN(Cc1cccnc1)C(=O)CO2 | -5.54%
Cn1cc(CN2CCO[C@@H]3CN(Cc4ccoc4)C[C@@H]3C2)cn1 | -0.642%
O=C(c1c[nH]cn1)N1CCCn2c(CN3CCCCC3)nnc2C1 | -1.43%
O=C(O)[C@]12CCCN(Cc3ccsc3)C[C@H]1CN(c1ccccn1)C2 | 13.5%
Cc1ccc2c(n1)N(CCN(C)C)CCN(Cc1c(C)noc1C)C2 | -2.08%
CN(C)CCN1CCCC12CCCN(Cc1ccoc1)C2 (stereo not drawn) | 13.7%
CC(C)N1CCc2c(c(COc3cccnc3)nn2CC2CC2)C1 | -2.06%
Cc1nc(CN2CC[C@H]3[C@H]2CCN3c2ncccn2)cs1 | -5.71%
c1ccc(CN2CC[C@H]3[C@H]2CCN3c2ncccn2)nc1 | -5.09%
